Publication PMC11846984 (Nature Communications, 2025)

Target: T1, GPX4 (Mus musculus, UniProt O70325)
T1 sequence (O70325 28-197): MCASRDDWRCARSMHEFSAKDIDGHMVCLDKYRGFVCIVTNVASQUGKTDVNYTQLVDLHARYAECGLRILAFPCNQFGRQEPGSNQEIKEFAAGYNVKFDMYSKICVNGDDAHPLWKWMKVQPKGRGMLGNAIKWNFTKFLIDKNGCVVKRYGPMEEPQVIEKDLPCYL
Test: cellular thermal shift assay
Assay type: cell-based

## COc1ccc(N(C(=O)CCl)C(C(=O)NCCc2ccccc2)c2cccs2)cc1Cl (stereo not shown) [ML162]
  cellular thermal shift assay (CETSA): Both the GPX4-targeting ligand ML162 and ML-NR were found to enhance the thermal stability of the GPX4 protein
